# In patent US6352976B1, “Selective inhibitors of MMP-12” (Aventis Pharmaceuticals Inc., priority 1998, dated 2002):
# pKi: −log10 of the molar value. Counter-ions that a name gives are not always drawn.
# Legend:
# [1] = biological target: T1, MMP-2 (Homo sapiens, UniProt P08253); assay: Determination of inhibition constant (Ki) for MMP-2, fluorogenic substrate; type: biochemical; conditions: pH 7.6
# T1 construct: made in house; host or cells: Pichia pastoris (strains KM71 / SMD1168, clone 24S; vector pHIL-D2)
# T1 sequence (P08253 110-660): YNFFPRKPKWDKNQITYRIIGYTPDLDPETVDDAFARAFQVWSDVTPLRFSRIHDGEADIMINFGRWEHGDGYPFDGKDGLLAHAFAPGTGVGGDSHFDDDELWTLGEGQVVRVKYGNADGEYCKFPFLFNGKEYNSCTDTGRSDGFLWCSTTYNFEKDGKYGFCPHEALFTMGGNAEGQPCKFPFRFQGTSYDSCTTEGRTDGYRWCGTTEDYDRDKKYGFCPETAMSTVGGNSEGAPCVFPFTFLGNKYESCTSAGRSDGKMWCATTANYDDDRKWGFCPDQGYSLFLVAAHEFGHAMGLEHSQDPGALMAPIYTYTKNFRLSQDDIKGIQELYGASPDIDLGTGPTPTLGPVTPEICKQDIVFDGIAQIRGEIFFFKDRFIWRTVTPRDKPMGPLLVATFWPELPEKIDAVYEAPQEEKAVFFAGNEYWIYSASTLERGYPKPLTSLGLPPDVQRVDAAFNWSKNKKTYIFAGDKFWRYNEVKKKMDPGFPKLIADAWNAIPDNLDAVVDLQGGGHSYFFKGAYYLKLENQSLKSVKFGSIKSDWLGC
# Description: Recombinant MMP-2 was purified from the fermentation broth of yeast Pichia pastoris that carries the integrated MMP-2 gene into its chromosome. In brief, the full-length cDNA for MMP-2 was obtained by reverse transcription of RNA from human melanoma A375M cell line by the reverse transcriptase polymerase chain reaction (RT-PCR) using sequence specific oligonucleotides. The nucleotide sequence was confirmed by Taq cycle sequencing. The cDNA was ligated into the Pichia pastoris expression vector pHIL-D2 in such a way that the expression of pro-MMP-2 is under the control of the methanol inducible alcohol oxidase promoter. The expression construct was digested with either SalI or NsiI and used to transform the Pichia pastoris strains KM71 and SMD1168. A large-scale culture of a selected clone designated 24S was performed in a high cell density fermentor and the recombinant MMP-2 was purified from the culture supernatant by gelatin-sepharose 4B (Pharmacia). The enzyme is sufficiently pure at this stage for routine measurement of inhibition. If desired, however, the enzyme may be further purified by AcA 44 gel filtration (Spectra).
# The active MMP-2 was obtained by activation of proMMP-2 at 37° C. for 1 h with 4-aminophenylmercuric acetate which was then removed by a Sephadex G-50 spin column. The enzyme is assayed using a fluorogenic substrate, Mca-Pro-Leu-Gly-Leu-Dpa-Ala-Arg-NH2, at 37° C. in 2.0 mL of assay buffer containing 50 mM Tris, pH 7.6, 0.2 M sodium chloride, 50 mM calcium chloride, 0.02% Brij-35, and 50 μM β-mercaptoethanol. The increase in fluorescence is monitored (λex 328 nm, λem 393 nm). Substrate and inhibitor stock solutions are made in DMF. The enzyme is added at the last to start the reaction. For routine measurement of a Ki value for a reversible, competitive inhibitor, the initial rates in the presence of at least four inhibitor concentrations (two inhibitor concentrations above Ki and two below Ki) are measured using [S]=1 μM (<<Km) and [MMP-2]=0.4 nM. Under these conditions, the measured Ki, app is close to true Ki.
# [2] = biological target: T2, MMP-3 (Stromelysin-1) (Homo sapiens, UniProt P08254); assay: Determination of inhibition constant (Ki) for MMP-3, fluorogenic substrate; type: biochemical; conditions: pH 7.6
# T2 construct: The active MMP-3 was obtained by treatment of proMMP-3 with trypsin; endogenous in cells; host or cells: human rheumatoid synovial fibroblasts stimulated with macrophage-conditioned medium; secreted proenzyme purified from culture medium
# T2 sequence (P08254 100-477): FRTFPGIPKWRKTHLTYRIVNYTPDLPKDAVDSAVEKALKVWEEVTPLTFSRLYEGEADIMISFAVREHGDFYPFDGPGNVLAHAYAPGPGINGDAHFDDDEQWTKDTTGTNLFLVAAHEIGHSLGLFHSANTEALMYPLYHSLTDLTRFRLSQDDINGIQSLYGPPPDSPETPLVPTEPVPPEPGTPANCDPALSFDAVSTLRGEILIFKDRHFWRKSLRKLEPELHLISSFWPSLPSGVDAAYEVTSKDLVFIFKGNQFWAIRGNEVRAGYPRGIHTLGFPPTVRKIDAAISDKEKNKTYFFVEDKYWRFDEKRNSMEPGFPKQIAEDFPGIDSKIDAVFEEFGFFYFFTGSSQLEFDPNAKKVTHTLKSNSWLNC
# Experimental: ProMMP-3 (EC3.4.24.17; Stromelysin-1) was purified from culture medium of human rheumatoid synovial fibroblasts stimulated with macrophage-conditioned medium according to Okada, Y. et al., J. Biol. Chem. 261, 14245-14255 (1986). The active MMP-3 was obtained by treatment of proMMP-3 with trypsin (5 μg/mL) at 37° C. for 30 minutes, followed by addition of soybean trypsin inhibitor (50 μg/mL). Aliquots of the activated MMP-3 were stored at −20° C.
# The activated MMP-3 is assayed using a fluorogenic substrate, Mca-Pro-Leu-Gly-Leu-Dpa-Ala-Arg-NH2, Knight, C. G. et al., FEBS Lett. 296, 263-266 (1992), at 37° C. in an assay buffer containing 50 mM Tris, pH 7.6, 0.2 M sodium chloride, 50 mM calcium chloride, and 0.02% Brij-35. The increase in fluorescence due to cleavage of Gly-Leu peptide bond by MMP-3 was monitored with Perkin-Elmer LS50B Fluorimeter (λex 328 nm, λem 393 nm, excitation slit 2.5, emission slit 10). Substrate and inhibitor stock solutions were made in DMF and 0.1% HCl-DMF, respectively. For determination of Ki values for MMP-3 inhibitors, a series of intermediate inhibitor solutions were prepared in 0.1% HCl-DMF and 1 or 2 μL of the diluted inhibitor solution was mixed with 1 μL of 2 mM substrate solution in DMF in a quartz cuvette containing 2 mL of assay buffer. The enzyme (10 μL of 0.2 μM MMP-3 dilution in assay buffer) was added at the last to start the reaction. For routine measurement of a Ki value for a reversible, competitive inhibitor, the initial rates in the presence of at least four inhibitor concentrations (two concentrations above Ki and two concentrations below Ki) were measured using [S]=1 μM (<<Km) and [MMP-3]=1 nM. Under these conditions, the measured Ki, app is close to true Ki.
# The Ki for a competitive inhibitor is calculated using: v0/vi=(1+[I]/Ki, app) and Ki=Ki, app/(1+[S]/Km), where v0 is the initial rate in the absence of inhibitor, vi is the initial rate in the presence of inhibitor at the concentration of [I], [S] is the substrate concentration, and Km is the Michaelis constant. If slow binding is observed (i.e. if the approach to the binding equilibrium is slow), the final steady-state rate rather than the initial rate is taken as vi.
# [3] = Table 1, Mca-Pro-Leu-Gly-Leu-Dpa-Ala-Arg-NH2, 37° C.
Structure (SMILES),"pKi [1, 3]","pKi [2, 3]","pKi ([1]; Table 2 (comparative), method of Example B, 37° C.)","pKi ([2]; Table 2 (comparative), method of Example C, 37° C.)"
"CC(C)C[C@H](NC(=O)[C@@H](S)C(C)C)C(=O)N[C@@H](Cc1ccccc1)C(=O)O [Example 3, (S)-2-Mercapto-3-methylbutyroyl-(L)-leucyl-(L)-phenylalanine]",6.11,5.85,–,–
"CSCC[C@H](NC(=O)[C@@H](S)C(C)C)C(=O)N[C@@H](Cc1ccccc1)C(=O)O [Example 4, (S)-2-Mercapto-3-methylbutyroyl-(L)-methionyl-(L)-phenylalanine]",6.10,6.35,–,–
"CC(C)[C@H](S)C(=O)N[C@@H](CCCCN)C(=O)N[C@@H](Cc1ccccc1)C(=O)O [Example 5, (S)-2-Mercapto-3-methylbutyroyl-(L)-lysyl-(L)-phenylalanine trifluoroacetic acid salt]",5.76,5.81,–,–
"CNC(=O)[C@H](Cc1ccccc1)NC(=O)[C@H](CCc1ccccc1)NC(=O)C(S)C(C)C (stereo partly drawn) [Example 7, (S)-2-Mercapto-3-methylbutyroyl-(L)-homo-phenylalanyl-(L)-phenylalanine N-methyl amide, reference compound]",–,–,8.48,8.00
